ChEMBL document CHEMBL4190319, “Piperlongumine B and analogs are promising and selective inhibitors for acetylcholinesterase” (Eur J Med Chem, 2017)

Experiments:
[1] = Solubility of the compound in DMSO; assay type: physicochemical
SW-1736 [2] = assay: Cytotoxicity against human SW1736 cells assessed as cell survival at 40 uM after 96 hrs by sulforhodamine B assay relative to control; assay type: functional; conditions: SW-1736, 96 h, read-out: Survival
FaDu [3] = assay: Cytotoxicity against human FADU cells assessed as cell survival at 40 uM after 96 hrs by sulforhodamine B assay relative to control; assay type: functional; conditions: read-out: Survival
A253 cell line [4] = assay: Cytotoxicity against human A253 cells assessed as cell survival at 40 uM after 96 hrs by sulforhodamine B assay relative to control; assay type: functional; conditions: A253, 96 h, read-out: Survival
HT-29 [5] = assay: Cytotoxicity against human HT-29 cells assessed as cell survival at 40 uM after 96 hrs by sulforhodamine B assay relative to control; assay type: functional; conditions: HT-29, 96 h, read-out: Survival
MCF7 [6] = assay: Cytotoxicity against human MCF7 cells assessed as cell survival at 40 uM after 96 hrs by sulforhodamine B assay relative to control; assay type: functional; conditions: MCF7, 96 h, read-out: Survival
Acetylcholinesterase [7] = target: T1, Acetylcholinesterase (Electrophorus electricus, UniProt O42275); assay: Competitive inhibition of electric eel AChE assessed as inhibition constant for enzyme-substrate-inhibitor complex preincubated for 20 mins followed by acetylthiocholine iodide substrate addition and measured for 30 mins at 1 min intervals by Ellman's method
T1 sequence (O42275 whole entry): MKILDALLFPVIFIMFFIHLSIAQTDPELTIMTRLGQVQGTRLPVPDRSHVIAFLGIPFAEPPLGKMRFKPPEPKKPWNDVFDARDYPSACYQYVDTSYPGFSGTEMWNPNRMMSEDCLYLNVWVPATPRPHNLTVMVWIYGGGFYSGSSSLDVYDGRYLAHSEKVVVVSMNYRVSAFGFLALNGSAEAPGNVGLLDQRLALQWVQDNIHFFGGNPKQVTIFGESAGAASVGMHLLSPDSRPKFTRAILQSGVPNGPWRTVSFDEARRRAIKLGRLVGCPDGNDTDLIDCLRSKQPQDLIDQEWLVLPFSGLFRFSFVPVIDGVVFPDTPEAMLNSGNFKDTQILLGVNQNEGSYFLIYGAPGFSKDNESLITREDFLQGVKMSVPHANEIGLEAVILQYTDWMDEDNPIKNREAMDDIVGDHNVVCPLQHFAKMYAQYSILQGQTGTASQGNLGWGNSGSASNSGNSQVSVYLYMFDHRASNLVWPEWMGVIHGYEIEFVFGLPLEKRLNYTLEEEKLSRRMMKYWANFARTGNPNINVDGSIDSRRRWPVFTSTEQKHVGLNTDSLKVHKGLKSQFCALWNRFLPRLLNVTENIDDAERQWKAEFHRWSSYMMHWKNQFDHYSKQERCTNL

Acetylcholinesterase [8] = target: T1, Acetylcholinesterase; assay: Competitive inhibition of electric eel AChE assessed as inhibition constant for enzyme inhibitor complex preincubated for 20 mins followed by acetylthiocholine iodide substrate addition and measured for 30 mins at 1 min intervals by Ellman's method
[9] = Cytotoxicity against mouse NIH/3T3 cells assessed as cell survival at 40 uM after 96 hrs by sulforhodamine B assay relative to control; assay type: cell-based, NIH3T3; conditions: read-out: Survival
HT-29 [10] = assay: Cytotoxicity against human HT-29 cells assessed as cell survival at 60 uM after 96 hrs by sulforhodamine B assay relative to control; assay type: functional; conditions: HT-29, 96 h, read-out: Survival
[11] = Cytotoxicity against mouse NIH/3T3 cells assessed as cell survival at 60 uM after 96 hrs by sulforhodamine B assay relative to control; assay type: cell-based, NIH3T3; conditions: read-out: Survival
FaDu [12] = assay: Cytotoxicity against human FADU cells assessed as cell survival at 60 uM after 96 hrs by sulforhodamine B assay relative to control; assay type: functional; conditions: read-out: Survival
A253 cell line [13] = assay: Cytotoxicity against human A253 cells assessed as cell survival at 60 uM after 96 hrs by sulforhodamine B assay relative to control; assay type: functional; conditions: A253, 96 h, read-out: Survival
SW-1736 [14] = assay: Cytotoxicity against human SW1736 cells assessed as cell survival at 60 uM after 96 hrs by sulforhodamine B assay relative to control; assay type: functional; conditions: SW-1736, 96 h, read-out: Survival
MCF7 [15] = assay: Cytotoxicity against human MCF7 cells assessed as cell survival at 60 uM after 96 hrs by sulforhodamine B assay relative to control; assay type: functional; conditions: MCF7, 96 h, read-out: Survival

Row | Structure (SMILES) | solubility [1] | viability at 40 µM (SW-1736 [2]) | viability at 40 µM (FaDu [3]) | viability at 40 µM (A253 cell line [4]) | viability at 40 µM (HT-29 [5]) | viability at 40 µM (MCF7 [6]) | Ki (Acetylcholinesterase [7]) | Ki (Acetylcholinesterase [8]) | viability at 96 h, 40 µM [9] | viability at 60 µM (HT-29 [10]) | viability at 96 h, 60 µM [11] | viability at 60 µM (FaDu [12]) | viability at 60 µM (A253 cell line [13]) | viability at 60 µM (SW-1736 [14]) | viability at 60 µM (MCF7 [15])
1 | CCCCCCCCCCCCCCCCC/C=C/C(=O)N1CCCC1 | Insoluble |  |  |  |  |  |  |  |  |  |  |  |  |  | 
2 | CCCCCCCCCCCCC/C=C/C(=O)N1CCCCC1 |  | 77% | 90% | 57% | 47% | 40% | > 50 µM | 7.45 µM | 80% |  |  |  |  |  | 
3 | CCCCCCCCCCCCCCC/C=C/C(=O)N1CCCC1 | Insoluble |  |  |  |  |  |  |  |  |  |  |  |  |  | 
4 | CCCCCCCCCCCCC/C=C/C(=O)N1CCCCCCC1 |  | 43% | 61% | 40% | 15% | 27% | 23.3 µM | 2.04 µM | 50% |  |  |  |  |  | 
5 | CCCCCCCCCCC/C=C/C(=O)N1CCCCCC1 |  |  |  |  |  |  | 45.4 µM | 9.99 µM |  | 57% | 63% | 85% | 63% | 80% | 35%
6 | CCCCCCCCCCC/C=C/C(=O)N1CCC1 |  |  |  |  |  |  |  |  |  | 84% | 80% | 95% | 77% | 89% | 59%
7 | CCCCCCCCCCCCCCCCC/C=C/C(=O)N1CCCCCC1 | Insoluble |  |  |  |  |  |  |  |  |  |  |  |  |  | 
8 | CCCCCCCCCCCCC/C=C/C(=O)N1CCC1 |  | 88% | 96% | 69% | 71% | 62% |  |  | 92% |  |  |  |  |  | 
9 | CCCCCCCCCCCCCCC/C=C/C(=O)N1CCCCCCC1 |  |  |  |  |  |  | > 50 µM | 5.09 µM |  | 69% | 75% | 93% | 80% | 81% | 83%
10 | CCCCCCCCCCCCCCCCC/C=C/C(=O)N1CCC1 | Insoluble |  |  |  |  |  |  |  |  |  |  |  |  |  | 
11 | CCCCCCCCCCC/C=C/C(=O)N1CCCC1 |  |  |  |  |  |  |  |  |  | 86% | 78% | 96% | 86% | 99% | 69%
12 | CCCCCCCCCCCCC/C=C/C(=O)N1CCCCCC1 |  | 61% | 77% | 46% | 22% | 27% | 81.9 µM | 3.41 µM | 69% |  |  |  |  |  | 
13 | CCCCCCCCCCC/C=C/C(=O)N1CCCCCCC1 |  |  |  |  |  |  | 23 µM | 6.83 µM |  | 52% | 70% | 84% | 57% | 76% | 40%
14 | CCCCCCCCCCCCCCC/C=C/C(=O)N1CCC1 | Insoluble |  |  |  |  |  |  |  |  |  |  |  |  |  | 
15 | CCCCCCCCCCCCCCCCC/C=C/C(=O)N1CCCCC1 | Insoluble |  |  |  |  |  |  |  |  |  |  |  |  |  | 
16 | CCCCCCCCCCCCC/C=C/C(=O)N1CCCC1 |  | 42% | 79% | 44% | 24% | 24% |  |  | 60% |  |  |  |  |  | 
17 | CCCCCCCCCCCCCCC/C=C/C(=O)N1CCCCCC1 |  |  |  |  |  |  | 41.5 µM | 3.16 µM |  | 76% | 74% | 94% | 88% | 86% | 75%
18 | CCCCCCCCCCCCCCC/C=C/C(=O)N1CCCCC1 | Insoluble |  |  |  |  |  |  |  |  |  |  |  |  |  | 
19 | CCCCCCCCCCC/C=C/C(=O)N1CCCCC1 |  | 63% | 97% | 67% | 68% | 51% |  |  | 74% |  |  |  |  |  | 
20 | CCCCCCCCCCCCCCCCC/C=C/C(=O)N1CCCCCCC1 | Insoluble |  |  |  |  |  |  |  |  |  |  |  |  |  | 
